Assay results from ChEMBL document CHEMBL5053557, “Discovery of Novel Dual-Target Inhibitor of Bromodomain-Containing Protein 4/Casein Kinase 2 Inducing Apoptosis and Autophagy-Associated Cell Death for Triple-Negative Breast Cancer Therapy” (J Med Chem, 2021).
Calls of active or inactive are those of the source. The rule behind the calls is not given here.

Tests used:
MDA-MB-468 = assay: Antiproliferative activity against human MDA-MB-468 cells incubated for 24 hrs by MTT assay; assay type: functional, cell-based; conditions: MDA-MB-468, 24 h
MDA-MB-231 [1] = assay: cells; conditions: Homo sapiens, MDA-MB-231, 24 h
MDA-MB-231 [2] = assay: Antitumor activity against human MDA-MB-231 cells xenografted in po dosed nude BALB/c mouse assessed as tumor growth inhibition at 1:1 JQ-1 : compound ratio administered once daily for 19 days and measured every 3 days; assay type: functional, organism-based; conditions: dose 50.0 mg/kg, time 19.0 day
Mus musculus = assay: Toxicity in nude BALB/c mouse xenografted with human MDA-MB-231 cells assessed as change in body weight at 50 mg/kg, po containing 1:1 compound : JQ-1 ratio administered once daily for 19 days and measured every 3 days; assay type: organism-based; conditions: in vivo, 456 h, time 19 day

Row | Compound | IC50 (MDA-MB-468) | IC50 (MDA-MB-231 [1]) | Activity (MDA-MB-231 [2]) | Activity (Mus musculus)
1 | COc1cc(OC)c2c(=O)[nH]c(-c3cc(C)c(OCC(=O)Nc4ccc(N5CCN(C)CC5)c(F)c4)c(C)c3)nc2c1 | 8.33 µM | 5.72 µM |  | 
2 | CN1CCN(c2ccc(NC(=O)COc3ccc(-c4nc5cc(Cl)ccc5c(=O)[nH]4)cc3)cc2Cl)CC1 | 15.3 µM | 14.4 µM |  | 
3 | COc1cc(OC)c2c(=O)[nH]c(-c3ccc(C(=O)O)cc3)nc2c1 | 8.33 µM | 21.1 µM |  | 
4 | COc1cc(OC)c2c(=O)[nH]c(-c3cc(Br)c(OCC(=O)Nc4ccc(N5CCOCC5)c(Cl)c4)c(Br)c3)nc2c1 | 5.53 µM | 4.02 µM |  | 
5 | O=C(O)c1ccc2c(c1)nc(Nc1cccc(Cl)c1)c1ccncc12 [SILMITASERTIB] |  |  | Active | Toxic
6 | COc1cc(OC)c2c(=O)[nH]c(-c3cc(C)c(OCC(=O)Nc4ccc(N5CCOCC5)c(F)c4)c(C)c3)nc2c1 | 9.16 µM | 10.3 µM |  | 
7 | Cc1ccc2nc(-c3ccc(OCC(=O)Nc4ccc(N5CCN(C)CC5)c(Cl)c4)cc3)[nH]c(=O)c2c1 | 16.2 µM | 17.4 µM |  | 
8 | COc1cc(OC)c2c(=O)[nH]c(-c3ccc(NC(C)=O)cc3)nc2c1 | 24.7 µM | 27.3 µM |  | 
9 | COc1cc(OC)c2c(=O)[nH]c(-c3ccc(OCC(=O)O)cc3)nc2c1 | 18.6 µM | 19.7 µM |  | 
10 | COc1cc(OC)c2c(=O)[nH]c(-c3cc(C)c(OCC(=O)NC4CCN(C(=O)OC(C)(C)C)CC4)c(C)c3)nc2c1 | 17.2 µM | 22.4 µM |  | 
11 | COc1cc(OC)c2c(=O)[nH]c(-c3ccc(C)cc3)nc2c1 | 38.4 µM | 45.6 µM |  | 
12 | COc1cc(OC)c2c(=O)[nH]c(-c3cc(C)c(OCC(=O)Nc4ccc(N5CCOCC5)c(Cl)c4)c(C)c3)nc2c1 | 6.31 µM | 10.2 µM |  | 
13 | COc1ccc2nc(-c3ccc(NC(C)=O)cc3)[nH]c(=O)c2c1 | 41.2 µM | > 50 µM |  | 
14 | COc1cc(OC)c2c(=O)[nH]c(-c3cc(C)c(OCC(=O)Nc4ccc(N5CCN(C)CC5)c(Cl)c4)c(C)c3)nc2c1 | 4.58 µM | 3.49 µM |  | 
15 | COc1cccc(-c2cc(=O)c3cc(OC)ccc3o2)c1 [6,3'-DIMETHOXYFLAVONE] | > 50 µM | > 50 µM |  | 
16 | COc1cc(OC)c2c(=O)[nH]c(-c3ccc(OCC(=O)Nc4ccc(N5CCCCC5)cc4)cc3)nc2c1 | 11.6 µM | 10.3 µM |  | 
17 | COc1cccc(-c2cc(=S)c3cc(OC)ccc3o2)c1 | > 50 µM | > 50 µM |  | 
18 | COC(=O)COc1ccc(-c2nc3cc(OC)cc(OC)c3c(=O)[nH]2)cc1 | 13.8 µM | 22 µM |  | 
19 | COc1cc(OC)c2c(=O)[nH]c(-c3ccccc3OCC(=O)O)nc2c1 | 18.6 µM | 36.7 µM |  | 
20 | COc1cc(OC)c2c(=O)[nH]c(-c3cc(Br)c(OCC(=O)Nc4ccc(N5CCCCC5)cc4)c(Br)c3)nc2c1 | 15.6 µM | 16.4 µM |  | 
21 | COc1cc(OC)c2c(=O)[nH]c(-c3cccc(OCC(=O)O)c3)nc2c1 | 22.7 µM | 25.6 µM |  | 
22 | COc1cc(OC)c2c(=O)[nH]c(-c3cc(Br)c(OCC(=O)NC4CCN(C)CC4)c(Br)c3)nc2c1 | 14.8 µM | 16.9 µM |  | 

Row | Compound | IC50 (MDA-MB-468) | IC50 (MDA-MB-231 [1]) | Activity (MDA-MB-231 [2]) | Activity (Mus musculus)
23 | COc1cc(OC)c2c(=O)[nH]c(-c3cc(C)c(OCC(=O)NCC4CCOCC4)c(C)c3)nc2c1 | 25.6 µM | 23.6 µM |  | 
24 | COc1ccc2nc(-c3cc(OC)c(O)c(OC)c3)[nH]c(=O)c2c1 | 43.3 µM | > 50 µM |  | 
25 | COc1cc(OC)c2c(=O)[nH]c(-c3cc(C)c(O)c(C)c3)nc2c1 | 19.3 µM | 17.5 µM |  | 
26 | COc1cc(OC)c2c(=O)[nH]c(-c3ccc(OCC(=O)Nc4cccc(N5CCN(C)CC5)c4)cc3)nc2c1 | 8.07 µM | 13.2 µM |  | 
27 | COc1cc(OC)c2c(=O)[nH]c(-c3ccc(O)c(Br)c3)nc2c1 | 22.3 µM | 23.2 µM |  | 
28 | COc1cc(OC)c2c(=O)[nH]c(-c3cc(C)c(OCC(=O)Nc4cc(OC)c(OC)c(OC)c4)c(C)c3)nc2c1 | 16.6 µM | 24.4 µM |  | 
29 | COc1cc(OC)c2c(=O)[nH]c(-c3ccc(OCC(=O)Nc4ccc(N5CCOCC5)c(F)c4)cc3)nc2c1 | 8.58 µM | 7.09 µM |  | 
30 | COc1cc(OC)c2c(=O)cc(-c3cc(C)cc(C)c3)oc2c1 | 39.6 µM | 47.8 µM |  | 
31 | O=c1cc(-c2ccccc2)oc2ccc(Br)cc12 [6-BROMOFLAVONE] | 48.2 µM | 33.5 µM |  | 
32 | COc1cc(OC)c2c(=O)[nH]c(-c3cccc(C)c3)nc2c1 | 39.4 µM | 43.9 µM |  | 
33 | COc1cc(OC)c2c(=O)[nH]c(-c3ccccc3OC)nc2c1 | 44.6 µM | > 50 µM |  | 
34 | COc1cccc(-c2nc3cc(OC)cc(OC)c3c(=O)[nH]2)c1 | 29.3 µM | 38.3 µM |  | 
35 | COc1cc(OC)c2c(=O)[nH]c(-c3cc(Br)c(OCC(=O)Nc4ccc(N5CCN(C)CC5)cc4)c(Br)c3)nc2c1 | 15.8 µM | 13.6 µM |  | 
36 | CN1CCN(c2ccc(NC(=O)COc3ccc(-c4nc5cc(F)ccc5c(=O)[nH]4)cc3)cc2Cl)CC1 | 7.51 µM | 6.94 µM |  | 
37 | COc1cc(-c2nc3ccccc3c(=O)[nH]2)cc(OC)c1O | > 50 µM | > 50 µM |  | 
38 | COc1cc(OC)c2c(=O)[nH]c(-c3ccc(OCC(=O)Nc4ccc(N5CCOCC5)c(Cl)c4)cc3)nc2c1 | 8.29 µM | 4.52 µM |  | 
39 | COc1cc(OC)c2c(=O)[nH]c(-c3cc(Br)c(OCC(=O)Nc4ccc(N5CCOCC5)cc4)c(Br)c3)nc2c1 | 15.1 µM | 13.2 µM |  | 
40 | COc1cc(OC)c2c(=O)[nH]c(-c3cc(C)c(OCC(=O)Nc4ccc(N5CCCCC5)cc4)c(C)c3)nc2c1 | 9.43 µM | 13.4 µM |  | 
41 | COc1cc(OC)c2c(=O)[nH]c(-c3cc(C)c(OCC(=O)Nc4nc5ccccc5[nH]4)c(C)c3)nc2c1 | 30.3 µM | > 50 µM |  | 
42 | COc1cc(OC)c2c(=O)[nH]c(-c3ccc(OCC(=O)Nc4cc(OC)c(OC)c(OC)c4)cc3)nc2c1 | 15 µM | 23.4 µM |  | 
43 | Cc1ccc(-c2nc3ccccc3c(=O)[nH]2)cc1 | > 50 µM | > 50 µM |  | 
44 | COc1cc(OC)c2c(=S)cc(-c3cc(C)cc(C)c3)oc2c1 | > 50 µM | > 50 µM |  | 

Row | Compound | IC50 (MDA-MB-468) | IC50 (MDA-MB-231 [1]) | Activity (MDA-MB-231 [2]) | Activity (Mus musculus)
45 | COc1cc(OC)c2c(=O)[nH]c(-c3cc(C)c(OCC(=O)Nc4cccc(N5CCOCC5)c4)c(C)c3)nc2c1 | 13.4 µM | 11.3 µM |  | 
46 | COc1cc(OC)c2c(=O)[nH]c(-c3cc(C)c(OCC(=O)Nc4cccc(N5CCN(C)CC5)c4)c(C)c3)nc2c1 | 15.7 µM | 14.6 µM |  | 
47 | COc1ccc2nc(-c3ccc(C)cc3)[nH]c(=O)c2c1 | 30.4 µM | > 50 µM |  | 
48 | COc1cc(OC)c2c(=O)[nH]c(-c3ccc(OCC(=O)NCC4CCOCC4)cc3)nc2c1 | 26.6 µM | 21.2 µM |  | 
49 | COc1cc(OC)c2c(=O)[nH]c(-c3ccc(N)cc3)nc2c1 | > 50 µM | 36.5 µM |  | 
50 | COc1cc(OC)c2c(=O)[nH]c(-c3ccc(OCC(=O)Nc4ccc(N5CCOCC5)cc4)cc3)nc2c1 | 9.54 µM | 7.67 µM |  | 
51 | COc1cc(OC)c2c(=O)[nH]c(-c3cc(C)c(OCC(=O)Nc4ccc(N5CCOCC5)cc4)c(C)c3)nc2c1 | 9.49 µM | 8.23 µM |  | 
52 | COc1cc(OC)c2c(=O)[nH]c(-c3ccc(OCC(=O)Nc4ccc(N5CCN(C)CC5)c(F)c4)cc3)nc2c1 | 7.55 µM | 6.3 µM |  | 
53 | COc1cc(OC)c2c(=O)[nH]c(-c3ccc(OCC(=O)Nc4ccccc4N4CCN(C)CC4)cc3)nc2c1 | 11.5 µM | 17.3 µM |  | 
54 | COc1cc(OC)c2c(=O)[nH]c(-c3ccc(OCC(=O)Nc4cccc(N5CCOCC5)c4)cc3)nc2c1 | 17.8 µM | 15.3 µM |  | 
55 | CC(=O)Nc1ccc(-c2nc3ccccc3c(=O)[nH]2)cc1 | > 50 µM | > 50 µM |  | 
56 | COc1ccc2oc(-c3cc(C)cc(C)c3)cc(=O)c2c1 | > 50 µM | 45.7 µM |  | 
57 | COc1cc(OC)c2c(=O)[nH]c(-c3ccc(OCC(=O)NC4CCN(C(=O)OC(C)(C)C)CC4)cc3)nc2c1 | 16.6 µM | 13.1 µM |  | 
58 | COc1cc(OC)c2c(=O)[nH]c(-c3ccc(OCC(=O)Nc4ccc(N5CCN(C)CC5)cc4)cc3)nc2c1 | 8.8 µM | 6.46 µM |  | 
59 | COc1cc(OC)c2c(=O)[nH]c(-c3cc(C)c(OCC(=O)NC4CCN(C)CC4)c(C)c3)nc2c1 | 15.6 µM | 17.2 µM |  | 
60 | COc1cc(OC)c2c(=O)[nH]c(-c3ccc(OCC(=O)Nc4ccc(N5CCCC5)cc4)cc3)nc2c1 | 7.82 µM | 19.6 µM |  | 
61 | COc1ccc2oc(-c3ccccc3)cc(=S)c2c1 | > 50 µM | > 50 µM |  | 
62 | COc1cc(OC)c2c(=O)[nH]c(-c3cc(C)c(OCC(=O)Nc4ccc(N5CCN(C)CC5)cc4)c(C)c3)nc2c1 | 12.6 µM | 10.8 µM |  | 
63 | CN1CCN(c2ccc(NC(=O)COc3ccc(-c4nc5ccc(Cl)cc5c(=O)[nH]4)cc3)cc2Cl)CC1 | 6.23 µM | 5.21 µM |  | 
64 | COc1cc(OC)c2c(=O)[nH]c(-c3cc(C)c(Br)c(C)c3)nc2c1 | 29.6 µM | 25.2 µM |  | 
